Here are results for one compound from publication PMC7545187, “Endocrine disruption of vitamin D activity by perfluoro-octanoic acid (PFOA)” (Scientific Reports, 2020).

The experiment has as its target T1, Vitamin D receptor (VDR) (Homo sapiens, UniProt P11473).
T1 sequence (P11473 1-427): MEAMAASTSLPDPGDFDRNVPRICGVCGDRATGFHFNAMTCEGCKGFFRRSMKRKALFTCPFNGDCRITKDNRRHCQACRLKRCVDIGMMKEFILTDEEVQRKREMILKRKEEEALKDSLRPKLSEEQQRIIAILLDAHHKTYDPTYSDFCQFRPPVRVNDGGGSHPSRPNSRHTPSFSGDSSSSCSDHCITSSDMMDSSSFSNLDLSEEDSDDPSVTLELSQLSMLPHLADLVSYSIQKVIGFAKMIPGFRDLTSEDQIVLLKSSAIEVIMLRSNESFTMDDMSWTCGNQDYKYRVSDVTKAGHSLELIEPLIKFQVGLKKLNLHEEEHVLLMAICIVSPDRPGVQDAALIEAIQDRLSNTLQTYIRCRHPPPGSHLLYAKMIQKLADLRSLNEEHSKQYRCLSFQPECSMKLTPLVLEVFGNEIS
The experiment in a line: SPR competition: PFOA ([…]) with […](OH)D over immobilized VDR; […] decrease, no Kd for PFOA. The format is binding.

As to `O=C(O)C(F)(F)C(F)(F)C(F)(F)C(F)(F)C(F)(F)C(F)(F)C(F)(F)F` [PFOA, perfluorooctanoic acid], the “% decrease” value worked out at 10 % decrease.
